We go through 39 molecules from US10494380B2, “Nitrogen-containing tricyclic derivatives having HIV replication inhibitory activity” (priority 2015, dated 2019).

Where two headings read alike, the source gives them in different places.

For experiment [1], the system named is T125A mutant virus (HIV-1 NL-432 recombinant molecular clone, IN gene). Description: HIV replication inhibition assay against integrase 124/125 mutant virus (Test Example 2). Type of experiment: cell-based. An outline of the steps: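 EC50 is the compound concentration blocking half of virus-induced cell death, measured by MTT (OD 560 nm, 690 nm reference) after 4 days at 37 °C. Integrase 124/125 mutant NL-432 virus from transfected 293T cells (60 pfu) was added to 2.5×10^4 MT-4 cells with compound.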

A further experiment has as its system HIV. Type of experiment: cell-based. To be noted: EC50 in the presence of human serum (25%) versus without human serum, MT-4 cells. Here is the method: To confirm the influence of human serum on anti-HIV activity as necessary, human serum was added and determined EC50 in this condition. Human serum (100 μL/well) was dispensed into each anti-HIV active substance at a designated concentration dispensed 50 μL each in advance into a 96-well microtiter plate, and the plate was incubate at room temperature for 1 hour. To the serum-free plate, only culture medium (100 μL/well) was dispensed into 96-well microtiter plate. MT-4 cells (3×10^4 cells/well) was infected with 3 μL/well of HIV solution diluted to an appropriate concentration (600 pfu/50 μL) by the required number of wells and incubated at 37° C. for 1 hour. The infected cells were centrifuged at 1200 rpm for 5 minutes, the supernatant was discarded, and the infected cells were dispersed into culture medium for the required number of wells at 50 μL/well. Infected cell suspension was dispensed into a 96-well microtiter plate of which anti-HIV active substance and human serum prepared in advance. The cell mixture was mixed with a plate mixer and cultured in a CO2 incubator for 4 days. The EC50 in the presence of human serum was calculated in the same manner as in Test Example 1 and the ratio of EC50 in the presence of human serum and EC50 in the absence of human serum was calculated as the potency shift value. […]

The mark [2] stands for this setting: T125A mutant virus (HIV-1 NL-432 IN gene), MT-4 cells, MTT, read-out: EC50 against T125A mutant virus.
Setting [3] is: Human immunodeficiency virus 1, MT4, read-out: EC50 against T125A mutant virus, T125A mutant virus (HIV-1 NL-432 IN gene), MT-4 cells, MTT.

Usually EC50 stands for the concentration that produces a half-maximal response. As for `Cc1ccc(-c2c([C@H](OC(C)(C)C)C(=O)O)c(C)c3c4c2cc(C)n4CCN3c2ncc(C3=CCN(C)CC3)cn2)cc1` [Compound I-212], the EC50 in experiment [1] (setting [2]) was 6.8 nM. Besides, the Potency shift value with HIV is recorded as 3.9.
Consider `Cc1ccc(-c2c([C@H](OC(C)(C)C)C(=O)O)c(C)c3c4c2cc(C)n4CCN3c2ncc(Oc3nc4ccccc4o3)cn2)cc1` [Compound I-345], for which the EC50 in experiment [1] (setting [3]) was 38 nM. Besides, the Potency shift value with HIV was determined as 41.
With `Cc1ccc(-c2c([C@H](OC(C)(C)C)C(=O)O)c(C)c3c4c2cc(C)n4CCN3c2cccc(CN3CCOCC3)n2)cc1` [Compound I-217], in experiment [1] (setting [2]), the EC50 stood at 39 nM. The Potency shift value with HIV came out at 9.1.
Take `Cc1ccc(-c2c([C@H](OC(C)(C)C)C(=O)O)c(C)c3c4c2cc(C)n4CCN3c2ncc(Oc3ccnc4ccccc34)cn2)cc1` [Compound I-340]: the EC50 in experiment [1] (setting [3]) was determined as 15 nM. In the experiment on HIV, the Potency shift value came out at 18.
Taken in the same sequence, the figures for `Cc1c([C@H](OC(C)(C)C)C(=O)O)c(-c2cc3ccccc3s2)c2cc(C)n3c2c1N(CCN(C)C)CC3` [Compound I-319] were 87 nM and 3.4.
Taken in the same sequence, the figures for `Cc1ccc(-c2c([C@H](OC(C)(C)C)C(=O)O)c(Cl)c3c4c2cc(C)n4CCN3c2ccc(C)nn2)cc1` [Compound I-354] were 5.3 nM and 27.
Taken in the same sequence, the figures for `Cc1c(-c2c([C@H](OC(C)(C)C)C(=O)O)c(C)c3c4c2cc(C)n4CCN3CCN(C)C)cc(F)c2c1CCCO2` [Compound I-310] were 68 nM and 1.2.
`Cc1ccc(-c2c([C@H](OC(C)(C)C)C(=O)O)c(C)c3c4c2cc(C)n4CCN3c2ccc3ncccc3n2)cc1` [Compound I-289]: the EC50 in experiment [1] (setting [3]) is 35 nM. For the same molecule, in the experiment on HIV, the Potency shift value was found to be 15.
On the same counts, the results for `Cc1c([C@H](OC(C)(C)C)C(=O)O)c(-c2ccc(Cl)cc2)c2cc(C)n3c2c1N(c1ncc(C2CCOCC2)cn1)CC3` [Compound I-311] are 3.1 nM and 15.
Take `COc1ccc(N2CCn3c(C)cc4c(-c5ccc(Cl)cc5)c([C@H](OC(C)(C)C)C(=O)O)c(C)c2c43)nc1` [Compound I-192]: the EC50 in experiment [1] (setting [3]) was found to be 4.6 nM. In addition, the Potency shift value with HIV was 11.
Taken in the same sequence, the figures for `Cc1ccc(-c2c([C@H](OC(C)(C)C)C(=O)O)c(Cl)c3c4c2cc(C)n4CCN3c2nc3c(s2)CCN(C)C3)cc1` [Compound I-352] were 14 nM and 10.
On to `Cc1c([C@H](OC(C)(C)C)C(=O)O)c(-c2ccc(Cl)cc2)c2cc(C)n3c2c1N(C)CC3c1ccccc1` (stereo partly drawn) [Compound I-331], for which the EC50 in experiment [1] (read-out: EC50 against T125A mutant virus, T125A mutant virus (HIV-1 NL-432 IN gene), MT-4 cells, MTT) came to 92 nM. Also, the Potency shift value in the experiment with HIV was 7.
As for `Cc1cc(F)c(-c2c([C@H](OC(C)(C)C)C(=O)O)c(C)c3c4c2cc(C)n4CCN3CCN(C)C)c(F)c1` [Compound I-248], the EC50 in experiment [1] (setting [3]) came out at 67 nM. Moreover, in the experiment with HIV, the Potency shift value came out at 1.5.
Taken in the same sequence, the figures for `Cc1c([C@H](OC(C)(C)C)C(=O)O)c(-c2ccc(Cl)cc2)c2cc(C)n3c2c1N(c1ncc(COCCN(C)C)cn1)CC3` [Compound I-315] were 80 nM and 3.9.
Taken in the same sequence, the figures for `COc1cnc(N2CCn3c(C)cc4c(-c5ccccc5)c([C@H](OC(C)(C)C)C(=O)O)c(C)c2c43)nc1` [Compound I-231] were 10 nM and 22.
Taken in the same sequence, the figures for `Cc1c([C@H](OC(C)(C)C)C(=O)O)c(-c2ccc(Cl)cc2)c2cc(C)n3c2c1N(c1nccs1)CC3` [Compound I-165] were 6.9 nM and 8.3.
In the case of `Cc1c([C@H](OC(C)(C)C)C(=O)O)c(-c2ccc(Cl)cc2)c2cc(C)n3c2c1N(c1ncc(OCC2(F)COC2)cn1)CC3` [Compound I-259], in experiment [1] (setting [3]), the EC50 turned out to be 4.4 nM. For the same molecule, in the experiment with HIV, the Potency shift value was found to be 15.
In the case of `COCCOC(=O)Nc1cnc(N2CCn3c(C)cc4c(-c5ccc(C)cc5)c([C@H](OC(C)(C)C)C(=O)O)c(C)c2c43)nc1` [Compound I-203], the EC50 in experiment [1] (setting [2]) amounted to 13 nM. Besides, the Potency shift value in the experiment with HIV worked out at 30.
Taken in the same sequence, the figures for `Cc1ccc(-c2c([C@H](OC(C)(C)C)C(=O)O)c(C)c3c4c2cc(C)n4CCN3c2cccc(CO)n2)cc1` [Compound I-216] were 20 nM and 9.2.
Turning to `COCc1cnc(N2CCn3c(C)cc4c(-c5ccc(Cl)cc5)c([C@H](OC(C)(C)C)C(=O)O)c(C)c2c43)nc1` [Compound I-312], in experiment [1] (setting [3]), the EC50 worked out at 4.6 nM. In addition, the Potency shift value with HIV worked out at 37.
On the same counts, the results for `Cc1c([C@H](OC(C)(C)C)C(=O)O)c(-c2ccc(Cl)cc2)c2cc(C)n3c2c1N(c1ncc(CN(C)C)cn1)CC3` [Compound I-313] are 8.8 nM and 7.7.
Take `Cc1ccc(-c2c([C@H](OC(C)(C)C)C(=O)O)c(C)c3c4c2cc(C)n4CCN3c2ncc(Oc3nc(C)nc4ccccc34)cn2)cc1` [Compound I-343]: the EC50 in experiment [1] (setting [3]) was 21 nM. Also, the Potency shift value in the experiment on HIV worked out at 11.
On the same counts, the results for `Cc1ccc(-c2c([C@H](OC(C)(C)C)C(=O)O)c(C)c3c4c2cc(C)n4CCN3c2ncc(CN3CCOCC3)cn2)cc1` [Compound I-348] are 5 nM and 21.
On the same counts, the results for `Cc1c([C@H](OC(C)(C)C)C(=O)O)c(-c2ccc(Cl)cc2)c2cc(C)n3c2c1N(c1ncc(-c2ccc(F)cc2)cn1)CC3` [Compound I-239] are 22 nM and 16.
On the same counts, the results for `COCCOc1cnc(N2CCn3c(C)cc4c(-c5ccc(Cl)cc5)c([C@H](OC(C)(C)C)C(=O)O)c(C)c2c43)nc1` [Compound I-234] are 3.6 nM and 19.
On to `Cc1ccc(-c2c([C@H](OC(C)(C)C)C(=O)O)c(F)c3c4c2cc(C)n4CCN3C)cc1` [Compound I-179], for which the EC50 in experiment [1] (setting [3]) amounted to 83 nM. Moreover, the Potency shift value in the experiment with HIV came to 23.
On the same counts, the results for `Cc1ccc(-c2c([C@H](OC(C)(C)C)C(=O)O)c(C)c3c4c2cc(C)n4CCN3c2ncc(N3C[C@@H](C)O[C@@H](C)C3)cn2)cc1` [Compound I-316] are 6.6 nM and 17.
Taken in the same sequence, the figures for `Cc1c([C@H](OC(C)(C)C)C(=O)O)c(C2=CCC(C)(C)CC2)c2cc(C)n3c2c1N(CCN(C)C)CC3` [Compound I-320] were 16 nM and 2.6.
On the same counts, the results for `Cc1ccc(-c2c([C@H](OC(C)(C)C)C(=O)O)c(C)c3c4c2cc(C)n4CCN3c2ncc(C(=O)N(C)C)cn2)cc1` [Compound I-250] are 9.9 nM and 19.
On to `Cc1ccc(-c2c([C@H](OC(C)(C)C)C(=O)O)c(C)c3c4c2cc(C)n4CCN3c2ncc(CN3CCCC3)cn2)cc1` [Compound I-347], for which the EC50 in experiment [1] (setting [3]) is 10 nM. Further, the Potency shift value with HIV came out at 7.4.
On the same counts, the results for `Cc1c([C@H](OC(C)(C)C)C(=O)O)c(-c2ccc(Cl)cc2)c2cc(C)n3c2c1N(Cc1cnccn1)CC3` [Compound I-152] are 11 nM and 6.9.
Take `CCOCCN1CCn2c(C)cc3c(-c4ccc(C)cc4)c([C@H](OC(C)(C)C)C(=O)O)c(C)c1c32` [Compound I-207]: the EC50 in experiment [1] (setting [2]) was determined as 19 nM. For the same molecule, in the experiment with HIV, the Potency shift value is reported as 8.1.
`Cc1ccc(-c2c(C(OC(C)(C)C)C(=O)O)c(C#N)c3c4c2cc(C)n4CCN3C)cc1` (stereo not drawn) [Compound I-186]: the EC50 in experiment [1] (setting [3]) is 20 nM. The Potency shift value with HIV came out at 15.
Consider `Cc1ccc(-c2c([C@H](OC(C)(C)C)C(=O)O)c(C)c3c4c2cc(C)n4CCN3c2ncc(OCCO)cn2)cc1` [Compound I-283], for which, in experiment [1] (setting [3]), the EC50 amounted to 12 nM. In the experiment on HIV, the Potency shift value was determined as 9.5.
On the same counts, the results for `C=Cc1cnc(N2CCn3c(C)cc4c(-c5ccc(Cl)cc5)c([C@H](OC(C)(C)C)C(=O)O)c(C)c2c43)nc1` [Compound I-299] are 5.1 nM and 20.
On the same counts, the results for `Cc1ccc(-c2c([C@H](OC(C)(C)C)C(=O)O)c(Cl)c3c4c2cc(C)n4CCN3c2nc3c(s2)CN(C)CC3)cc1` [Compound I-353] are 15 nM and 10.
On the same counts, the results for `Cc1ccc(-c2c([C@H](OC(C)(C)C)C(=O)O)c(C)c3c4c2cc(C)n4CCN3c2nc3ccccc3n2C)cc1` [Compound I-251] are 4.2 nM and 9.6.
Take `Cc1ccc(-c2c([C@H](OC(C)(C)C)C(=O)O)c(C)c3c4c2cc(C)n4CCN3c2ncc(OC3COC3)cn2)cc1` [Compound I-280]: the EC50 in experiment [1] (setting [3]) was determined as 5.3 nM. The Potency shift value in the experiment with HIV is reported as 21.
On the same counts, the results for `Cc1ccc(-c2c([C@H](OC(C)(C)C)C(=O)O)c(C)c3c4c2cc(C)n4CCN3CC(F)F)cc1` [Compound I-281] are 17 nM and 23.
